Test results: ChEMBL document CHEMBL1141964, “Molecular docking and 3D-QSAR on 2-(oxalylamino) benzoic acid and its analogues as protein tyrosine phosphatase 1B inhibitors” (Bioorg Med Chem Lett, 2005)

Target: T1, Tyrosine-protein phosphatase non-receptor type 1 (Homo sapiens, UniProt P18031)
T1 sequence (P18031 whole entry): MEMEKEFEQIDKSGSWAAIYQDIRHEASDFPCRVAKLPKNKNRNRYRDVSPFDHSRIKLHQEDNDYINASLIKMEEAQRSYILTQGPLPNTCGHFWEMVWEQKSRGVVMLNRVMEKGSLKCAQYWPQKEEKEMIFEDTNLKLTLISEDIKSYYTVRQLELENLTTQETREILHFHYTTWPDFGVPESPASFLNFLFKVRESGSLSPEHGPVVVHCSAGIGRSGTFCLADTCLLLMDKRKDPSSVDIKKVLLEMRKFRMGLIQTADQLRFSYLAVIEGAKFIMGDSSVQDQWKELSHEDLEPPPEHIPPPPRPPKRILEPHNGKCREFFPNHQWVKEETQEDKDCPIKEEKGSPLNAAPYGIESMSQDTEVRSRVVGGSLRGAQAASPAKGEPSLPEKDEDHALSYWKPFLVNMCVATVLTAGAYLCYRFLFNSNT
Assay: Binding affinity to PTP1B

Ki: 2200 nM
Structure (SMILES): O=C(O)C(=O)Nc1sc2c(c1C(=O)O)CCC1(C2)OCCO1
